SMILES strings stand for the structures. Counter-ions that a name gives are not always drawn.

The assay addresses CB1-receptor (UniProt P20272). Nature of the assay: In-vitro determination of affinity (binding) to CB1-receptors, radioligand [3H]-CP55940. Details: IC50; Ki; species or system human or rat. The conditions noted are these: Pharmacological Methods Part I. How it is done:
I. In-Vitro Determination of Affinity to CB1/CB2-Receptors
The in-vitro determination of the affinity of the inventive substituted pyrazoline compounds to CB1/CB2-Rezeptors is carried out as described in the publication of Ruth A. Ross, Heather C. Brockie et al., “Agonist-inverse agonist characterisation at CB1 and CB2 cannabinoid receptors of L-759633, L759656 and AM630”, British Journal of Pharmacology, 126, 665-672, (1999), whereby the transfected human CB1 and CB2 receptors of Receptor Biology, Inc. are used. The radioligand used for both receptors is [^3H]-CP55940. The respective parts of the description is hereby incorporated by reference and forms part of the present disclosure.
Rat Cerebellum CB1 Binding
Binding affinity to CB1 receptor was evaluated according to a modification of the method described by Govaerts et al., Eur J Pharmac Sci 23, 233-243 (2004). The respective parts of the description is hereby incorporated by reference and forms part of the present disclosure.
Briefly, cerebellum from male wistar rats (250-300 g) were carefully dissected on ice and homogenates were prepared with Potter-Helveheim in a cold 50 mM Tris-HCl solution containing 5 mM MgCl2, 1 mM EDTA and 0.25 M sucrose, pH 7.4. The suspension was centrifuged at 1,000×g for 5 minutes. The supernatants were collected and centrifuged 50,000×g for 15 minutes. The resulting pellets were then resuspended in Tris-HCl buffer without sucrose, homogenised and incubated for 15 min at 37° C. in an orbital shaker bath and centrifuged again at 50,000×g for 15 min. Pellets were weighted, resuspended in Tris-HCl buffer without sucrose, homogenised with Ultraturrax at 13,500 rpm for 3×5 seconds and alicuoted in 0.9 ml volumes in Eppendorf tubes. Alicuotes were centrifuged at 20,800×g for 5 minutes, supernatants discarded and pellets were frozen at −80° C. until use. Total protein concentration was determined using the Bio-Rad Lowry method based kit. Competitive binding experiments were performed in presence of 1 nM [^3H]-CP 55,940 in siliconised glass tubes containing 100 μg protein/tube resuspended in 1 ml final volume of 50 mM Tris-HCl, 5 mM MgCl2, 1 mM EDTA, 0.5% (w/v) bovine serum albumin, pH 7.4. Compounds were present at various concentrations and the non specific binding was determined in the presence of 10 μM HU-210. After 1 hour incubation at 30° C., the suspension was rapidly filtered through 0.5% PEI pre-treated GF/B fiber filters on a 96-well harvester and washed 3 times with 3 ml ice-cold binding buffer without bovine serum albumin. Radioactivity on filters was measured with Wallac Winspectral 1414 counter by liquid scintillation in 6 ml Ecoscint H (National Diagnostics, U.K.). Assays were made in triplicates.
Binding data were analysed by non-linear regression with the software GraphPad Prism Version 3.03.
The binding of the pyrazoline compounds of general formulae I, Ia and Ib to CB1-receptors was determined according to the method described in the section Pharmacological Methods, Part I.
As for `Cc1ccc(C)c(S(=O)(=O)NCC2=NN(c3ccc(Cl)cc3Cl)[C@@H](c3ccc(Cl)cc3)C2)c1` [Example 69, (R)-N-[5-(4-Chloro-phenyl)-1-(2,4-dichloro-phenyl)-4,5-dihydro-1H-pyrazol-3-ylmethyl]-2,5-dimethyl-benzenesulfonamide], the concentration for half-maximal inhibition (IC50) – broadly, the point on the concentration scale where inhibition reaches its midpoint – came to 36.7 nM and the Ki – broadly, the equilibrium dissociation constant of an inhibitor or competing ligand from its target – was 16.2 nM.
As to `Cc1ccc(F)cc1S(=O)(=O)NCC1=NN(c2ccc(Cl)cc2Cl)[C@@H](c2ccc(Cl)cc2)[C@H]1C` (racemic) [Example 73, cis-(4RS,5RS)-N-[5-(4-Chloro-phenyl)-1-(2,4-dichloro-phenyl)-4-methyl-4,5-dihydro-1H-pyrazol-3-ylmethyl]-5-fluoro-2-methyl-benzenesulfonamide], the half-inhibitory concentration (IC50) worked out at 11.8 nM and the Ki stood at 5.3 nM.
Taken in the same sequence, the figures for `O=S(=O)(NCC1=NN(c2ccc(Cl)cc2Cl)C(c2ccc(Cl)cc2)C1)c1ccccc1Br` (centres unmarked) [Example 136, 2-Bromo-N-[5-(4-chloro-phenyl)-1-(2,4-dichloro-phenyl)-4,5-dihydro-1H-pyrazol-3-ylmethyl]-benzenesulfonamide] were 40 nM and 16.9 nM.
The corresponding values for `CCOc1ccc(C2CC(CNS(=O)(=O)c3c(C)cc(C)cc3C)=NN2c2ccc(Cl)cc2Cl)cc1` (centres unmarked) [Example 272, N-[1-(2,4-Dichloro-phenyl)-5-(4-ethoxy-phenyl)-4,5-dihydro-1H-pyrazol-3-ylmethyl]-2,4,6-trimethyl-benzenesulfonamide] are 13.4 nM and 5.7 nM.
With `CCOc1ccc(C2CC(CNS(=O)(=O)c3cc(Cl)ccc3F)=NN2c2ccc(Cl)cc2Cl)cc1` (centres unmarked) [Example 100, 5-Chloro-N-[1-(2,4-dichloro-phenyl)-5-(4-ethoxy-phenyl)-4,5-dihydro-1H-pyrazol-3-ylmethyl]-2-fluoro-benzenesulfonamide], the IC50 turned out to be 30.8 nM and the affinity, expressed as Ki, was 12.8 nM.
Taken in the same sequence, the figures for `COc1ccc(C2CC(CNS(=O)(=O)c3cc(C)ccc3C)=NN2c2ccc(Cl)cc2Cl)cc1` (centres unmarked) [Example 97, N-[1-(2,4-Dichloro-phenyl)-5-(4-methoxy-phenyl)-4,5-dihydro-1H-pyrazol-3-ylmethyl]-2,5-dimethyl-benzenesulfonamide] were 43.9 nM and 18.4 nM.
The corresponding values for `Cc1ccc([N+](=O)[O-])cc1S(=O)(=O)NCC1=NN(c2ccc(Cl)cc2Cl)C(c2ccc(Cl)cc2)C1` (centres unmarked) [Example 142, N-[5-(4-Chloro-phenyl)-1-(2,4-dichloro-phenyl)-4,5-dihydro-1H-pyrazol-3-ylmethyl]-2-methyl-5-nitro-benzenesulfonamide] are 5.5 nM and 2.3 nM.
Taken in the same sequence, the figures for `Cc1ccc(C)c(S(=O)(=O)NCC2=NN(c3ccc(Cl)cc3Cl)C(c3ccc(Br)cc3)C2)c1` (centres unmarked) [Example 280, N-[5-(4-Bromo-phenyl)-1-(2,4-dichloro-phenyl)-4,5-dihydro-1H-pyrazol-3-ylmethyl]-2,5-dimethyl-benzenesulfonamide] were 42 nM and 17.5 nM.
For the compound `O=S(=O)(NCC1=NN(c2ccc(Cl)cc2Cl)C(c2ccc(Cl)cc2)C1)c1cccnc1` (centres unmarked) [Example 53, Pyridine-3-sulfonic acid [5-(4-chloro-phenyl)-1-(2,4-dichloro-phenyl)-4,5-dihydro-1H-pyrazol-3-ylmethyl]-amide hydrochloride], the IC50 was 88.2 nM and the affinity corresponds to a Ki of 43.2 nM.
With `CCOc1ccc(C2CC(CNS(=O)(=O)c3cccc(Cl)c3Cl)=NN2c2ccc(Cl)cc2Cl)cc1` (centres unmarked) [Example 248, 2,3-Dichloro-N-[1-(2,4-dichloro-phenyl)-5-(4-ethoxy-phenyl)-4,5-dihydro-1H-pyrazol-3-ylmethyl]-benzenesulfonamide], the half-inhibitory concentration (IC50) came out at 17.9 nM and the Ki was 7.6 nM.
The corresponding values for `COc1ccc(C2CC(CNS(=O)(=O)c3cccc(Cl)c3)=NN2c2ccc(Cl)cc2Cl)cc1` (centres unmarked) [Example 225, 3-Chloro-N-[1-(2,4-dichloro-phenyl)-5-(4-methoxy-phenyl)-4,5-dihydro-1H-pyrazol-3-ylmethyl]-benzenesulfonamide] are 90.1 nM and 39.7 nM.
Taken in the same sequence, the figures for `CCOc1ccc(C2CC(CNS(=O)(=O)c3ccccc3F)=NN2c2ccc(Cl)cc2Cl)cc1` (centres unmarked) [Example 98, N-[1-(2,4-Dichloro-phenyl)-5-(4-ethoxy-phenyl)-4,5-dihydro-1H-pyrazol-3-ylmethyl]-2-fluoro-benzenesulfonafonamide] were 47.1 nM and 19.8 nM.
As to `Cc1ccc(C)c(S(=O)(=O)NCC2=NN(c3ccc(Cl)cc3Cl)[C@@H](c3ccc(Cl)cc3)[C@H]2C)c1` (racemic) [Example 83, cis-(4RS,5RS)-N-[5-(4-Chloro-phenyl)-1-(2,4-dichloro-phenyl)-4-methyl-4,5-dihydro-1H-pyrazol-3-ylmethyl]-2,5-dimethyl-benzenesulfonamide], the 50% inhibitory concentration (IC50) turned out to be 50.5 nM and the Ki was 21.4 nM.
The corresponding values for `CCOc1ccc(C2CC(CNS(=O)(=O)c3cccc(F)c3)=NN2c2ccc(Cl)cc2Cl)cc1` (centres unmarked) [Example 261, N-[1-(2,4-Dichloro-phenyl)-5-(4-ethoxy-phenyl)-4,5-dihydro-1H-pyrazol-3-ylmethyl]-3-fluoro-benzenesulfonamide] are 9.8 nM and 9.8 nM.
Taken in the same sequence, the figures for `Cc1ccc(F)cc1S(=O)(=O)NCC1=NN(c2ccc(Cl)cc2Cl)[C@@H](c2ccc(Cl)cc2)[C@H]1C` [Example 74, (4R,5R)-N-[5-(4-Chloro-phenyl)-1-(2,4-dichloro-phenyl)-4-methyl-4,5-dihydro-1H-pyrazol-3-ylmethyl]-5-fluoro-2-methyl-benzenesulfonamide] were 11 nM and 5.1 nM.
The compound `Cc1cc(S(=O)(=O)NCC2=NN(c3ccc(Cl)cc3Cl)[C@@H](c3ccc(Cl)cc3)C2)c(C)cc1Cl` [Example 67, (R)-4-Chloro-N-[5-(4-chloro-phenyl)-1-(2,4-dichloro-phenyl)-4,5-dihydro-1H-pyrazol-3-ylmethyl]-2,5-dimethyl-benzenesulfonamide] registered an IC50 of 91 nM and a Ki of 40.6 nM.
Taken in the same sequence, the figures for `CCOc1ccc(C2CC(CNS(=O)(=O)c3cc(F)ccc3C)=NN2c2ccc(Cl)cc2Cl)cc1` (centres unmarked) [Example 102, N-[1-(2,4-Dichloro-phenyl)-5-(4-ethoxy-phenyl)-4,5-dihydro-1H-pyrazol-3-ylmethyl]-5-fluoro-2-methyl-benzenesulfonamide] were 7.2 nM and 3 nM.
For `Cc1ccc(F)cc1S(=O)(=O)NCC1=NN(c2ccc(Cl)cc2Cl)C(c2ccc(Br)cc2)C1` (centres unmarked) [Example 277, N-[5-(4-Bromo-phenyl)-1-(2,4-dichloro-phenyl)-4,5-dihydro-1H-pyrazol-3-ylmethyl]-5-fluoro-2-methyl-benzenesulfonamide], the half-inhibitory concentration (IC50) came out at 43 nM and affinity was put at a Ki of 18.2 nM.
Taken in the same sequence, the figures for `COc1ccc(C2CC(CNS(=O)(=O)c3cccc(OC)c3)=NN2c2ccc(Cl)cc2Cl)cc1` (centres unmarked) [Example 221, N-[1-(2,4-Dichloro-phenyl)-5-(4-methoxy-phenyl)-4,5-dihydro-1H-pyrazol-3-ylmethyl]-3-methoxy-benzenesulfonamide] were 52.7 nM and 23.5 nM.
Taken in the same sequence, the figures for `Cc1ccc(F)cc1S(=O)(=O)NCC1=NN(c2ccc(Cl)cc2Cl)[C@@H](c2ccc(Cl)cc2)C1` [Example 63, (R)-N-[5-(4-Chloro-phenyl)-1-(2,4-dichloro-phenyl)-4,5-dihydro-1H-pyrazol-3-ylmethyl]-5-fluoro-2-methyl-benzenesulfonamide] were 50.4 nM and 21 nM.
`O=S(=O)(NCC1=NN(c2ccc(Cl)cc2Cl)[C@@H](c2ccc(Cl)cc2)C1)c1cc(Cl)ccc1F` [Example 106, (R)-5-Chloro-N-[5-(4-chloro-phenyl)-1-(2,4-dichloro-phenyl)-4,5-dihydro-1H-pyrazol-3-ylmethyl]-2-fluoro-benzenesulfonamide] came in with an IC50 of 28.5 nM and an inhibition constant Ki of 11.9 nM.
Taken in the same sequence, the figures for `CCOc1ccc(C2CC(CNS(=O)(=O)c3cc(C)c(Cl)cc3C)=NN2c2ccc(Cl)cc2Cl)cc1` (centres unmarked) [Example 247, 4-Chloro-N-[1-(2,4-dichloro-phenyl)-5-(4-ethoxy-phenyl)-4,5-dihydro-1H-pyrazol-3-ylmethyl]-2,5-dimethyl-benzenesulfonamide] were 65.5 nM and 27.7 nM.
